Measurements from ChEMBL document CHEMBL1201862, “PubChem BioAssay data set” (2004).
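Each compound was tested at five concentrations against cells in 96-well plates for 48 hours. At the GI50, growth is halved.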 Activity calls are given as the source filed them. No stated cut-off is given here; in the data, active = GI50 up to about 1.1 µM and inactive = higher.

Key:
Assay in all cases: NCI anticancer screen, dose series, 48 h
[1] = system: OVCAR-5
[2] = system: SK-MEL-2
[3] = system: IGROV-1
[4] = system: Malme-3M
[5] = system: SK-MEL-5
[6] = system: K562
[7] = system: SW-620
[8] = system: SR
[9] = system: HCT-15
[10] = system: OVCAR-8
[11] = system: CCRF-CEM
[12] = system: SNB-19
[13] = system: KM12
[14] = system: HCT-116
[15] = system: SN12C
[16] = system: RPMI-8226

SMILES: Clc1ccc(OCc2nnc3n2N=C(c2ccccc2)CS3)c(Cl)c1
- GI50 [1]: 5.78 µM (inactive)
- GI50 [2]: > 100 µM (inactive)
- GI50 [3]: 6.4 µM (inactive)
- GI50 [4]: > 100 µM (inactive)
- GI50 [5]: 8.28 µM (inactive)
- GI50 [6]: 4.25 µM (inactive)
- GI50 [7]: > 100 µM (inactive)
- GI50 [8]: 4.73 µM (inactive)
- GI50 [9]: > 100 µM
- GI50 [10]: 7.33 µM (inactive)
- GI50 [11]: 4.03 µM (inactive)
- GI50 [12]: 3.78 µM (inactive)
- GI50 [13]: > 100 µM (inactive)
- GI50 [14]: 2.67 µM (inactive)

SMILES: COC(=O)C(Br)C1CCc2ccccc21 (stereo not given)
- GI50 [1]: > 100 µM (inactive)
- GI50 [3]: > 100 µM (inactive)
- GI50 [4]: > 100 µM (inactive)
- GI50 [5]: > 100 µM (inactive)
- GI50 [6]: 52.7 µM (inactive)
- GI50 [7]: > 100 µM (inactive)
- GI50 [8]: 42.8 µM (inactive)
- GI50 [9]: > 100 µM
- GI50 [10]: > 100 µM (inactive)
- GI50 [11]: 48.1 µM (inactive)
- GI50 [15]: > 100 µM (inactive)
- GI50 [16]: 71.9 µM (inactive)
- GI50 [12]: 82.2 µM (inactive)
- GI50 [14]: > 100 µM (inactive)

SMILES: N#CCC(=O)Nc1cccc(C(F)(F)F)c1
- GI50 [1]: > 100 µM (inactive)
- GI50 [2]: > 100 µM (inactive)
- GI50 [3]: > 100 µM (inactive)
- GI50 [4]: > 100 µM (inactive)
- GI50 [5]: > 100 µM (inactive)
- GI50 [6]: > 10 µM (inactive)
- GI50 [7]: > 100 µM (inactive)
- GI50 [8]: > 100 µM (inactive)
- GI50 [9]: > 100 µM
- GI50 [10]: > 100 µM (inactive)
- GI50 [11]: > 100 µM (inactive)
- GI50 [15]: > 100 µM (inactive)
- GI50 [12]: > 100 µM (inactive)
- GI50 [13]: > 100 µM (inactive)
- GI50 [14]: > 100 µM (inactive)

SMILES: CC(=O)C1=NN(c2ccccc2)C2(S1)SC(c1ccccc1)(c1ccccc1)c1ccccc12 (stereo not given)
- GI50 [2]: 27 µM (inactive)
- GI50 [3]: 33.1 µM (inactive)
- GI50 [4]: 37.4 µM (inactive)
- GI50 [6]: 32.4 µM (inactive)
- GI50 [7]: 99.1 µM (inactive)
- GI50 [8]: 20.4 µM (inactive)
- GI50 [9]: > 100 µM
- GI50 [10]: 34.9 µM (inactive)
- GI50 [11]: 49.3 µM (inactive)
- GI50 [15]: > 100 µM (inactive)
- GI50 [16]: 44.1 µM (inactive)
- GI50 [12]: 62.2 µM (inactive)
- GI50 [13]: 74.5 µM (inactive)
- GI50 [14]: 24.4 µM (inactive)

SMILES: CC(C)C1=CC(=O)C(C)(C2=NC(C)(C)CO2)c2ccccc21 (stereo not given)
- GI50 [2]: > 100 µM (inactive)
- GI50 [3]: > 100 µM (inactive)
- GI50 [4]: > 100 µM (inactive)
- GI50 [5]: > 100 µM (inactive)
- GI50 [6]: 50.4 µM (inactive)
- GI50 [7]: > 100 µM (inactive)
- GI50 [8]: 60.3 µM (inactive)
- GI50 [9]: > 100 µM
- GI50 [10]: > 100 µM (inactive)
- GI50 [11]: > 100 µM (inactive)
- GI50 [15]: > 100 µM (inactive)
- GI50 [16]: 78.2 µM (inactive)
- GI50 [12]: > 100 µM (inactive)
- GI50 [13]: > 100 µM (inactive)
- GI50 [14]: > 100 µM (inactive)

SMILES: C#C[C@@H](CCCC)OC(=O)N[C@H](C)c1ccccc1
- GI50 [1]: 33 µM (inactive)
- GI50 [2]: 23.4 µM (inactive)
- GI50 [3]: 23 µM (inactive)
- GI50 [5]: 20.6 µM (inactive)
- GI50 [6]: 31.9 µM (inactive)
- GI50 [7]: 51.9 µM (inactive)
- GI50 [8]: 21.3 µM (inactive)
- GI50 [10]: 13.7 µM (inactive)
- GI50 [11]: 25.7 µM (inactive)
- GI50 [15]: 71.6 µM (inactive)
- GI50 [16]: 23 µM (inactive)
- GI50 [12]: 93.3 µM (inactive)
- GI50 [13]: 39.7 µM (inactive)
- GI50 [14]: 34.3 µM (inactive)

SMILES: CCCP1(=O)C=C(C)C(=C(Cl)Cl)C(C)=C1 (stereo not given)
- GI50 [1]: > 100 µM (inactive)
- GI50 [2]: 16.3 µM (inactive)
- GI50 [3]: 70 µM (inactive)
- GI50 [4]: 25.7 µM (inactive)
- GI50 [5]: 24.1 µM (inactive)
- GI50 [6]: 30.8 µM (inactive)
- GI50 [7]: 32.1 µM (inactive)
- GI50 [8]: 24.5 µM (inactive)
- GI50 [9]: 30.7 µM
- GI50 [10]: 37.9 µM (inactive)
- GI50 [11]: 39.5 µM (inactive)
- GI50 [15]: 24.6 µM (inactive)
- GI50 [13]: 24.2 µM (inactive)
- GI50 [14]: 41.2 µM (inactive)

SMILES: CC/C=C\C/C=C\C1CC(=O)NCCCNCCCCN1 (stereo not given)
- GI50 [1]: > 100 µM (inactive)
- GI50 [2]: 68.9 µM (inactive)
- GI50 [4]: 15.6 µM (inactive)
- GI50 [5]: > 100 µM (inactive)
- GI50 [7]: > 100 µM (inactive)
- GI50 [8]: > 100 µM (inactive)
- GI50 [10]: > 100 µM (inactive)
- GI50 [15]: > 100 µM (inactive)
- GI50 [12]: > 100 µM (inactive)
- GI50 [13]: > 100 µM (inactive)
- GI50 [14]: > 100 µM (inactive)

SMILES: CN(C)CC(/C(Cc1ccccc1)=N\NC(=S)NN)c1ccccc1 (stereo not given)
- GI50 [1]: > 100 µM (inactive)
- GI50 [3]: > 100 µM (inactive)
- GI50 [4]: > 100 µM (inactive)
- GI50 [6]: > 100 µM (inactive)
- GI50 [7]: > 100 µM (inactive)
- GI50 [8]: > 100 µM (inactive)
- GI50 [9]: > 100 µM
- GI50 [10]: > 100 µM (inactive)
- GI50 [15]: > 100 µM (inactive)
- GI50 [16]: > 100 µM (inactive)
- GI50 [12]: > 100 µM (inactive)
- GI50 [13]: > 100 µM (inactive)
- GI50 [14]: > 100 µM (inactive)

SMILES: Cc1nnc2c3nnc(C)n3c3ccccc3n12
- GI50 [1]: > 100 µM (inactive)
- GI50 [2]: > 100 µM (inactive)
- GI50 [3]: > 100 µM (inactive)
- GI50 [4]: > 100 µM (inactive)
- GI50 [5]: > 100 µM (inactive)
- GI50 [6]: > 100 µM (inactive)
- GI50 [7]: > 100 µM (inactive)
- GI50 [9]: > 100 µM
- GI50 [10]: > 100 µM (inactive)
- GI50 [11]: > 100 µM (inactive)
- GI50 [15]: > 100 µM (inactive)
- GI50 [16]: > 100 µM (inactive)
- GI50 [12]: > 100 µM (inactive)
- GI50 [13]: > 100 µM (inactive)
- GI50 [14]: > 100 µM (inactive)

SMILES: COc1ccc(N2C(=O)C3c4[nH]c5ccccc5c4C4CC(C)(C)CC(C)(C)C4C3C2=O)cc1 (stereo not given)
- GI50 [3]: 22.9 µM (inactive)
- GI50 [4]: 16.4 µM (inactive)
- GI50 [5]: 19.4 µM (inactive)
- GI50 [6]: 44.5 µM (inactive)
- GI50 [7]: 20 µM (inactive)
- GI50 [8]: 10.3 µM (inactive)
- GI50 [9]: 30.2 µM
- GI50 [10]: 3.2 µM (inactive)
- GI50 [11]: 69.7 µM (inactive)
- GI50 [15]: 16 µM (inactive)
- GI50 [16]: 31.8 µM (inactive)
- GI50 [12]: 23.7 µM (inactive)
- GI50 [14]: 13.5 µM (inactive)

SMILES: CCCCCCCCCCCCCC(=O)OCC(C[As](=O)(O)O)OC(=O)CCCCCCCCCCCCC (stereo not given)
- GI50 [2]: > 100 µM (inactive)
- GI50 [3]: > 100 µM (inactive)
- GI50 [4]: > 100 µM (inactive)
- GI50 [5]: > 100 µM (inactive)
- GI50 [6]: > 100 µM (inactive)
- GI50 [7]: 18.6 µM (inactive)
- GI50 [8]: > 100 µM (inactive)
- GI50 [9]: 69.3 µM
- GI50 [10]: > 100 µM (inactive)
- GI50 [11]: > 100 µM (inactive)
- GI50 [15]: 92 µM (inactive)
- GI50 [16]: > 100 µM (inactive)
- GI50 [12]: > 100 µM (inactive)
- GI50 [13]: > 100 µM (inactive)
- GI50 [14]: > 100 µM (inactive)

SMILES: O=C1C=C(Nc2cc(Cl)ccc2Cl)c2ccccc2C1=O
- GI50 [1]: 39 µM (inactive)
- GI50 [2]: 15.4 µM (inactive)
- GI50 [3]: 64.1 µM (inactive)
- GI50 [4]: 19.4 µM (inactive)
- GI50 [6]: 13.5 µM (inactive)
- GI50 [7]: 29.3 µM (inactive)
- GI50 [9]: 26.5 µM
- GI50 [10]: 16 µM (inactive)
- GI50 [15]: 38.5 µM (inactive)
- GI50 [16]: 20.9 µM (inactive)
- GI50 [12]: 46.2 µM (inactive)
- GI50 [13]: 23 µM (inactive)
- GI50 [14]: 34.1 µM (inactive)

SMILES: O=C1C=C(Nc2ccc(Cl)cc2Cl)c2ccccc2C1=O
- GI50 [1]: > 100 µM (inactive)
- GI50 [2]: 23.6 µM (inactive)
- GI50 [3]: 50.9 µM (inactive)
- GI50 [4]: 24.9 µM (inactive)
- GI50 [6]: 31.3 µM (inactive)
- GI50 [7]: 39.5 µM (inactive)
- GI50 [8]: 29.4 µM (inactive)
- GI50 [9]: 29.5 µM
- GI50 [10]: 80 µM (inactive)
- GI50 [11]: 30.8 µM (inactive)
- GI50 [15]: 57.1 µM (inactive)
- GI50 [16]: 46.5 µM (inactive)
- GI50 [12]: 39.3 µM (inactive)
- GI50 [13]: 66.5 µM (inactive)
- GI50 [14]: 35 µM (inactive)

SMILES: NC(=O)CCC(NC(=O)C(F)(F)F)C(=O)O (stereo not given)
- GI50 [1]: > 100 µM (inactive)
- GI50 [2]: > 100 µM (inactive)
- GI50 [3]: > 100 µM (inactive)
- GI50 [4]: > 100 µM (inactive)
- GI50 [5]: > 100 µM (inactive)
- GI50 [6]: > 100 µM (inactive)
- GI50 [7]: > 100 µM (inactive)
- GI50 [9]: > 100 µM
- GI50 [10]: > 100 µM (inactive)
- GI50 [11]: > 100 µM (inactive)
- GI50 [15]: > 100 µM (inactive)
- GI50 [16]: > 100 µM (inactive)
- GI50 [12]: > 100 µM (inactive)
- GI50 [13]: > 100 µM (inactive)
- GI50 [14]: > 100 µM (inactive)
